For this experiment, the target named is human LPAR1 (Homo sapiens, UniProt Q92633). As to the kind of experiment: In vitro functional assay of lysophosphatidic acid receptor 1 activity (calcium flux). The format is cell-based. (A change in cytosolic calcium serves as a functional read-out for many receptors and channels.)
[1] abbreviates: B103 cells stably expressing human LPAR1, calcium flux (Fluo-4 NW) after lysophosphatidic acid (18:1) at EC80, 100 pM to 10 μM, read-out: LPAR1 IC50.

The IC50 is the concentration that gives 50% inhibition.

Read-outs that look alike come from different tables or passages of the source.

Sequence of human LPAR1 (Q92633 whole entry): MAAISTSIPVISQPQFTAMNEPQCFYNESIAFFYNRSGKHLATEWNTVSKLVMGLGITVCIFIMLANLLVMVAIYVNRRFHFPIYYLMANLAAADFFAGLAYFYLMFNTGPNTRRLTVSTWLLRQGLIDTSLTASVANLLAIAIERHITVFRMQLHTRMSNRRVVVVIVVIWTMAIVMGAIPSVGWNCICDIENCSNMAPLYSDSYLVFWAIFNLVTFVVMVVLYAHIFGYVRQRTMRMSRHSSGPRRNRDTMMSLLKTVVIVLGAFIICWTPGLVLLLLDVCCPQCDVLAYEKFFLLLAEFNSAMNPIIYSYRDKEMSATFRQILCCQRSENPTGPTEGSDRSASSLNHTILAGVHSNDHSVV

Take `COc1ccc(NC(=O)N(c2ccccc2C(C)C)[C@H]2CC[C@H](C(=O)NS(C)(=O)=O)CC2)c(OC(F)F)n1` [Example 279, (1r,4r)-4-(3-(2-(difluoromethoxy)-6-methoxypyridin-3-yl)-1-(2-isopropylphenyl)ureido)-N-(methylsulfonyl)cyclohexane-1-carboxamide]: under setting [1], the IC50 was < 10 nM. On the same count and under the same terms, the figure for `Cc1ccc(NC(=O)N(c2ccccc2C(C)C)[C@H]2C[C@H](C(N)=O)C2)c(OC(F)F)n1` [Example 186, (1r,3r)-3-(3-(2-(difluoromethoxy)-6-methylpyridin-3-yl)-1-(2-isopropylphenyl)ureido)cyclobutane-1-carboxamide] is > 1000 nM. For `CC(=O)N1CCC(N(C(=O)Nc2ncc(Br)cc2OC(F)F)c2ncccc2C(C)C)CC1` [Example 142], the IC50 (LPAR1 IC50) is > 1000 nM. Regarding `CC(=O)N1CCC(N(C(=O)Nc2cccnc2OC(F)F)c2ccccc2C(C)C)CC1` [Example 91], the IC50 (LPAR1 IC50) lay in the range of 10 to 100 nM. Regarding `Cc1cc(OC(F)F)c(NC(=O)N(C[C@H]2C[C@H](C(=O)O)C2)c2ccccc2C(C)C)cn1` [Example 227], under setting [1], the IC50 lay within 10 to 100 nM. With `Cc1ccc(NC(=O)N(c2ccccc2C(C)C)C2CC(O)(C(F)(F)F)C2)c(OC(F)F)n1` (stereo not shown) [Example 196, 3-(2-(difluoromethoxy)-6-methylpyridin-3-yl)-1-(3-hydroxy-3-(trifluoromethyl)cyclobutyl)-1-(2-isopropylphenyl)urea], the IC50 under setting [1] was > 1000 nM. Still for that read-out and setting: the figure for `CC(=O)N1CC2(CCC(N(C(=O)Nc3ccc(C)nc3OC(F)F)c3ccccc3C(C)C)CC2)C1` [Example 250, 1-(2-acetyl-2-azaspiro[3.5]nonan-7-yl)-3-(2-(difluoromethoxy)-6-methylpyridin-3-yl)-1-(2-isopropylphenyl)urea] is 100 to 1000 nM; for `COCc1ccc(NC(=O)N(c2ccccc2C(C)C)[C@H]2CC[C@H](C(=O)O)CC2)c(OCC(F)F)n1` [Example 318, (1r,4r)-4-(3-(2-(2,2-difluoroethoxy)-6-(methoxymethyl)pyridin-3-yl)-1-(2-isopropylphenyl)ureido)cyclohexane-1-carboxylic acid] it is 100 to 1000 nM. Same read-out and setting: for `COc1ccc(NC(=O)N(c2ccccc2C(C)C)[C@H]2C[C@@H](CC(=O)O)C2)c(OCC(F)F)n1` [Example 332] the value was 10 to 100 nM.

On to `CC(=O)NC1CC(N(C(=O)Nc2ccc(C)nc2OC(F)F)c2ccccc2C(C)C)C1` (stereo not shown) [Example 271, N-(3-(3-(2-(difluoromethoxy)-6-methylpyridin-3-yl)-1-(2-isopropylphenyl)ureido)cyclobutyl)acetamide], for which the IC50 under setting [1] is 100 to 1000 nM. The same measure, in the same setting: the figure for `Cc1ccc(NC(=O)N(c2ccccc2C(C)C)[C@H]2CC[C@H](CC(C)(C)O)CC2)c(OC(F)F)n1` [Example 247, 3-(2-(difluoromethoxy)-6-methylpyridin-3-yl)-1-((1r,4r)-4-(2-hydroxy-2-methylpropyl)cyclohexyl)-1-(2-isopropylphenyl)urea] is 10 to 100 nM; for `Cc1ccc(NC(=O)N(c2ccccc2C(C)C)C2CC3(C2)CN(S(C)(=O)=O)C3)c(OC(F)F)n1` [Example 76, 3-(2-(difluoromethoxy)-6-methylpyridin-3-yl)-1-(2-isopropylphenyl)-1-(2-(methylsulfonyl)-2-azaspiro[3.3]heptan-6-yl)urea] it is 100 to 1000 nM.

Consider `CC(C)c1ccccc1N(C(=O)Nc1cc(F)c(F)cc1OC(F)F)[C@H]1C[C@@H](CC(=O)O)C1` [Example 329], for which, under setting [1], the IC50 is < 10 nM. Same read-out and setting: the figure for `CC(=O)N(C(C)=O)[C@H]1CC[C@H](N(C(=O)Nc2ccc(C)nc2OC(F)F)c2ccccc2C(C)C)CC1` [Example 265, N-acetyl-N-((1r,4r)-4-(3-(2-(difluoromethoxy)-6-methylpyridin-3-yl)-1-(2-isopropylphenyl)ureido)-cyclohexyl)acetamide] is > 1000 nM; for `Cc1ccc(NC(=O)N(c2ccccc2C(C)C)[C@H]2CC[C@@H](C(=O)O)C2)c(OC(F)F)n1` [Example 301] it is 10 to 100 nM. On the same count and under the same terms, for `Cc1ccc(NC(=O)N(c2ccccc2C(C)C)[C@H]2CC[C@@H](CO)CC2)c(OC(F)F)n1` [Example 242] the value was 100 to 1000 nM; for `CC(=O)N1CC[C@@H]1CN(C(=O)Nc1ccc(C)nc1OC(F)F)c1ccccc1C(C)C` [Example 71, (R)-1-((1-acetylazetidin-2-yl)methyl)-3-(2-(difluoromethoxy)-6-methylpyridin-3-yl)-1-(2-isopropylphenyl)urea], > 1000 nM. As for `COc1ccc(NC(=O)N(c2ccccc2C(C)C)[C@H]2C[C@](O)(C(F)(F)C(=O)O)C2)c(OC(F)F)n1` [Example 324], under setting [1], the IC50 is < 10 nM. Regarding `[2H]C([2H])([2H])c1ccc(NC(=O)N(c2ccccc2C(C)C)[C@H]2CC[C@H](C(=O)O)CC2)c(OC(F)F)n1` [Example 156, trans-4-(3-(2-(difluoromethoxy)-6-(methyl-d3)pyridin-3-yl)-1-(2-isopropylphenyl)ureido)cyclohexane-1-carboxylic acid], the IC50 under setting [1] is < 10 nM. Still for that read-out and setting: for `Cc1ccc(NC(=O)N(c2ccccc2C(C)C)[C@H]2CC[C@H](CC(=O)O)CC2)c(OC(F)F)n1` [Example 165, 2-((1r,4r)-4-(3-(2-(difluoromethoxy)-6-methylpyridin-3-yl)-1-(2-isopropylphenyl)ureido)cyclohexyl)acetic acid] the value was < 10 nM. Turning to `CC(=O)N1CCC(N(C(=O)Nc2ccc(C)cn2)c2ccccc2C(C)C)CC1` [Example 143, 1-(1-acetylpiperidin-4-yl)-1-(2-isopropylphenyl)-3-(5-methylpyridin-2-yl)urea], the IC50 (LPAR1 IC50) is > 1000 nM. Regarding `COC[C@H](C)Oc1nc(OC)ccc1NC(=O)N(c1ccccc1C(C)C)[C@H]1CC[C@H](C(=O)O)CC1` [Example 339, trans-4-(1-(2-isopropylphenyl)-3-(6-methoxy-2-(((S)-1-methoxypropan-2-yl)oxy)pyridin-3-yl)ureido)cyclohexane-1-carboxylic acid], under setting [1], the IC50 was in the range of 10 to 100 nM. Same read-out and setting: the figure for `CC(C)c1ccccc1N(C(=O)Nc1ccc(O)nc1OC(F)F)[C@H]1CC[C@H](C(=O)O)CC1` [Example 320] is 10 to 100 nM. Turning to `COc1ccc(NC(=O)N(c2ccccc2C(C)C)C2CCN(C(C)=O)CC2)c(OC(F)F)n1` [Example 86, 1-(1-acetylpiperidin-4-yl)-3-(2-(difluoromethoxy)-6-methoxypyridin-3-yl)-1-(2-isopropylphenyl)urea], the IC50 (LPAR1 IC50) was in the range of 10 to 100 nM. For the compound `Cc1ccc(NC(=O)N(c2ccccc2C(C)C)[C@H]2C[C@@H](OCc3ccccc3)C2)c(OC(F)F)n1` [Example 24, 1-((1s,3s)-3-(benzyloxy)cyclobutyl)-3-(2-(difluoromethoxy)-6-methylpyridin-3-yl)-1-(2-isopropylphenyl)urea], the IC50 under setting [1] is > 1000 nM. As for `CC(C)c1ccccc1N(C(=O)Nc1cc(F)c(Cl)cc1OCC(F)F)[C@H]1C[C@@H](CC(=O)O)C1` [Example 331], the IC50 under setting [1] is < 10 nM. Same read-out and setting: the figure for `COc1ccc(NC(=O)N(c2ccccc2C(C)C)[C@H]2CC[C@](C)(C(=O)O)CC2)c(OC(F)F)n1` [Example 340] is 10 to 100 nM; for `Cc1ccc(NC(=O)N(c2ccccc2C(C)C)C2CN(C(=O)OC(C)(C)C)C2)c(OC(F)F)n1` [Example 2, tert-butyl 3-(3-(2-(difluoromethoxy)-6-methylpyridin-3-yl)-1-(2-isopropylphenyl)ureido)azetidine-1-carboxylate] it is 100 to 1000 nM. On to `COc1ccc(NC(=O)N(c2cccc(C)c2C)C2CCN(C(C)=O)CC2)c(OC(F)F)n1` [Example 42, 1-(1-acetylpiperidin-4-yl)-3-(2-(difluoromethoxy)-6-methoxypyridin-3-yl)-1-(2,3-dimethylphenyl)urea], for which the IC50 (LPAR1 IC50) lay within 100 to 1000 nM.

With `CC(C)c1ccccc1N(C(=O)Nc1ncc(Br)cc1OC(F)F)C1CC(CC(=O)O)C1` (stereo not shown) [Example 176], the IC50 under setting [1] is 10 to 100 nM. For the compound `CC(=O)N1CCC(N(C(=O)Nc2ncc(Br)cc2C=O)c2ccccc2C(C)C)CC1` [Example 140], the IC50 (LPAR1 IC50) lay in the range of 100 to 1000 nM. Take `COC(C)c1ccccc1N(C(=O)Nc1ccc(C)nc1OC(F)F)C1CCN(C(C)=O)CC1` (stereo not shown) [Example 35, 1-(1-acetylpiperidin-4-yl)-3-(2-(difluoromethoxy)-6-methylpyridin-3-yl)-1-(2-(1-methoxyethyl)phenyl)urea]: the IC50 (LPAR1 IC50) was 100 to 1000 nM. Consider `CC(=O)N1CCC(N(C(=O)Nc2cncc(F)c2)c2ccccc2C(C)C)CC1` [Example 246], for which, for the setting “LPAR1 IC50”, the IC50 was > 1000 nM. In the case of `CC(=O)N1CC[C@H]1CN(C(=O)Nc1ccc(C)nc1OC(F)F)c1ccccc1C(C)C` [Example 72, (S)-1-((1-acetylazetidin-2-yl)methyl)-3-(2-(difluoromethoxy)-6-methylpyridin-3-yl)-1-(2-isopropylphenyl)urea], the IC50 under setting [1] was in the range of 100 to 1000 nM. Same read-out and setting: for `Cc1ccc(NC(=O)N(c2ccccc2C(C)C)[C@H]2CC[C@](C)(C(=O)O)CC2)c(OC(F)F)n1` [Example 309] the value was < 10 nM.

For the compound `COc1nc(C(F)F)ccc1NC(=O)N(c1ccccc1C(C)C)C1CCN(C(C)=O)CC1` [Example 113], for the setting “LPAR1 IC50”, the IC50 lay in the range of 10 to 100 nM. For `CC(=O)N[C@H]1CC[C@@H](N(C(=O)Nc2ccc(C)nc2OC(F)F)c2ccccc2C(C)C)CC1` [Example 266, N-((1s,4s)-4-(3-(2-(difluoromethoxy)-6-methylpyridin-3-yl)-1-(2-isopropylphenyl)ureido)cyclohexyl)acetamide], the IC50 under setting [1] was 100 to 1000 nM. On the same count and under the same terms, the figure for `COc1ccc(NC(=O)N(c2ccccc2C(C)C)C2CC3(CC(C(=O)O)C3)C2)c(OC(F)F)n1` (stereo not shown) [Example 233] is 10 to 100 nM; for `COc1ccc(NC(=O)N(c2ccccc2C(C)C)[C@H]2CC[C@H](c3cc(O)no3)CC2)c(OC(F)F)n1` [Example 283, 3-(2-(difluoromethoxy)-6-methoxypyridin-3-yl)-1-((1r,4r)-4-(3-hydroxyisoxazol-5-yl)cyclohexyl)-1-(2-isopropylphenyl)urea] it is 10 to 100 nM. Regarding `Cc1ccc(NC(=O)N(c2ccccc2C(C)C)[C@H]2[C@@H]3CN(C(=O)OC(C)(C)C)C[C@@H]32)c(OC(F)F)n1` [Example 9, tert-butyl (1R,5S,6s)-6-(3-(2-(difluoromethoxy)-6-methylpyridin-3-yl)-1-(2-isopropylphenyl)ureido)-3-azabicyclo[3.1.0]hexane-3-carboxylate], the IC50 (LPAR1 IC50) is > 1000 nM.
